Test results as given in patent US20170107179A1 (Tetraphase Pharmaceuticals, Inc., priority 2010, published 2017).

How the values were obtained:
[1] = test system: Crl:SKH1-hr hairless mouse; test: In vivo phototoxicity, Crl:SKH1-hr hairless mouse model; conditions: hairless mice, intracutaneous 0.0375 or 0.375 mg/mouse, UVA 20 J/cm^2, observed up to 3 days
Experimental: To estimate its potential to produce phototoxicity in vivo, Compound 102 was tested in validated in vivo and in vitro models of acute phototoxic activity at Charles River Laboratories (See Spielmann, H., et al., The second ECVAM workshop on phototoxicity testing. The report and recommendations of ECVAM workshop 42. Altern Lab Anim, 2000. 28(6): p. 777-814; and Peters, B. and H. G. Holzhutter, In vitro phototoxicity testing: development and validation of a new concentration response analysis software and biostatistical analyses related to the use of various prediction models. Altern Lab Anim, 2002. 30(4): p. 415-32, the entire teachings of both are incorporated herein by reference).
A vehicle control group was injected with normal saline. The pH of compound formulations was adjusted to 6.5±0.5 prior to injection. Immediately after administration, mice were lightly anesthetized via intraperitoneal injection of chloral hydrate in deionized water and then positioned on plastic tubing with laboratory tape. An aluminum foil mask with a single hole with a diameter of 1.3 cm (1.3 cm^2) was placed over the mid-dorsum injection site before UVA exposure. The distal administration site was shielded from UVA exposure. A UVA dose of no less than 20.0 and no more than 20.1 J/cm^2 at an intensity of 5±1 mW/cm^2 at the level of the mice was delivered during the exposure period. […]

E. coli DH10B EC970 TetK = test: MIC, E. coli DH10B recombinantly expressing tetracycline-resistance gene; conditions: arabinose-induced, ampicillin in medium
[2] = test system: E. coli DH10B EC1082 TetA; test: as above; conditions: arabinose-induced, ampicillin in medium
E. coli DH10B EC969 TetM = test: as above; conditions: arabinose-induced, ampicillin in medium
[3] = test system: E. coli DH10B EC1083 TetB; test: as above; conditions: arabinose-induced, ampicillin in medium
[4] = test system: E. coli DH10B EC1153 Tet(X); test: as above; conditions: arabinose-induced, ampicillin in medium
E. coli DH10B EC971 LacZ = test: MIC, E. coli DH10B recombinantly expressing control gene; conditions: E. coli DH10B, arabinose-induced, ampicillin in medium

SMILES: CN(C)c1ccc(O)c2c1C[C@H]1C[C@H]3[C@H](N(C)C)C(O)=C(C(N)=O)C(=O)[C@@]3(O)C(O)=C1C2=O [Minocycline, minocycline]
- phototoxicity, skin reactions at site of UVA exposure [1]: no skin reaction at either dose
- MIC EC970 TetK (E. coli DH10B EC970 TetK): 1
- MIC EC1082 TetA [2]: 8
- MIC EC969 TetM (E. coli DH10B EC969 TetM): 64
- MIC EC1083 TetB [3]: 16
- MIC EC1153 Tet(X) [4]: 4
- MIC EC971 LacZ (E. coli DH10B EC971 LacZ): 0.5
